What was measured:
Format in all cases: functional
[1] = test system: SK-MEL-28; experiment: Growth inhibition of human SK-MEL-28 cells by sulforhodamine B assay
[2] = test system: M14; experiment: Growth inhibition of human M14 cells by sulforhodamine B assay
[3] = test system: SK-MEL-2; experiment: Growth inhibition of human SK-MEL-2 cells assessed as cell growth at 10^-4 M by sulforhodamine B assay; conditions: read-out: Activity
[4] = test system: SNB-19; experiment: Growth inhibition of human SNB19 cells assessed as cell growth at 10^-4 M by sulforhodamine B assay; conditions: read-out: Activity
[5] = test system: HCT-15; experiment: Growth inhibition of human HCT15 cells assessed as cell growth at 10^-4 M by sulforhodamine B assay; conditions: read-out: Activity
[6] = test system: NCI-H226; experiment: Growth inhibition of human NCI-H226 cells assessed as cell growth at 10^-4 M by sulforhodamine B assay; conditions: read-out: Activity
[7] = test system: HOP-92; experiment: Growth inhibition of human HOP92 cells assessed as cell growth at 10^-4 M by sulforhodamine B assay; conditions: read-out: Activity
[8] = test system: A549; experiment: Growth inhibition of human A549/ATCC cells assessed as cell growth at 10^-4 M by sulforhodamine B assay; conditions: read-out: Activity
[9] = test system: MDA-MB-468; experiment: Growth inhibition of human MDA-MB-468 cells assessed as cell growth at 10^-6 M by sulforhodamine B assay; conditions: read-out: Activity
[10] = Growth inhibition of human Hs 578T cells assessed as cell growth at 10^-6 M by sulforhodamine B assay; conditions: read-out: Activity
[11] = test system: UO-31; experiment: Growth inhibition of human UO31 cells assessed as cell growth at 10^-6 M by sulforhodamine B assay; conditions: read-out: Activity
[12] = Growth inhibition of human NCI-ADR-RES cells assessed as cell growth at 10^-6 M by sulforhodamine B assay; conditions: read-out: Activity
[13] = test system: UACC-62; experiment: Growth inhibition of human UACC62 cells assessed as cell growth at 10^-6 M by sulforhodamine B assay; conditions: read-out: Activity
[14] = test system: SNB-75; experiment: Growth inhibition of human SNB75 cells assessed as cell growth at 10^-6 M by sulforhodamine B assay; conditions: read-out: Activity
[15] = test system: SW-620; experiment: Growth inhibition of human SW620 cells assessed as cell growth at 10^-6 M by sulforhodamine B assay; conditions: read-out: Activity
[16] = test system: NCI-H460; experiment: Growth inhibition of human NCI-H460 cells assessed as cell growth at 10^-6 M by sulforhodamine B assay; conditions: read-out: Activity
[17] = test system: NCI-H23; experiment: Growth inhibition of human NCI-H23 cells assessed as cell growth at 10^-6 M by sulforhodamine B assay; conditions: read-out: Activity
[18] = test system: HOP-62; experiment: Growth inhibition of human HOP62 cells assessed as cell growth at 10^-6 M by sulforhodamine B assay; conditions: read-out: Activity
[19] = test system: A549; experiment: Growth inhibition of human A549/ATCC cells assessed as cell growth at 10^-6 M by sulforhodamine B assay; conditions: read-out: Activity
[20] = test system: MOLT-4; experiment: Growth inhibition of human MOLT4 cells assessed as cell growth at 10^-6 M by sulforhodamine B assay; conditions: read-out: Activity
[21] = test system: MDA-MB-231; experiment: Growth inhibition of human MDA-MB-231 cells assessed as cell growth at 10^-7 M by sulforhodamine B assay; conditions: read-out: Activity
[22] = test system: SNB-19; experiment: Growth inhibition of human SNB19 cells assessed as cell growth at 10^-7 M by sulforhodamine B assay; conditions: read-out: Activity
[23] = test system: SW-620; experiment: Growth inhibition of human SW620 cells assessed as cell growth at 10^-7 M by sulforhodamine B assay; conditions: read-out: Activity
[24] = test system: NCI-H322M; experiment: Growth inhibition of human NCI-H322M cells assessed as cell growth at 10^-7 M by sulforhodamine B assay; conditions: read-out: Activity
[25] = test system: NCI-H226; experiment: Growth inhibition of human NCI-H226 cells assessed as cell growth at 10^-7 M by sulforhodamine B assay; conditions: read-out: Activity
[26] = test system: HOP-62; experiment: Growth inhibition of human HOP62 cells assessed as cell growth at 10^-7 M by sulforhodamine B assay; conditions: read-out: Activity
[27] = test system: MDA-MB-468; experiment: Growth inhibition of human MDA-MB-468 cells assessed as cell growth at 10^-8 M by sulforhodamine B assay; conditions: read-out: Activity
[28] = test system: DU-145; experiment: Growth inhibition of human DU145 cells assessed as cell growth at 10^-8 M by sulforhodamine B assay; conditions: read-out: Activity
[29] = test system: SN12C; experiment: Growth inhibition of human SN12C cells assessed as cell growth at 10^-8 M by sulforhodamine B assay; conditions: read-out: Activity
[30] = test system: A498; experiment: Growth inhibition of human A498 cells assessed as cell growth at 10^-8 M by sulforhodamine B assay; conditions: read-out: Activity
[31] = read-out: pLC50 (the source's name) (converted)

For CC(C)=CC(=O)O[C@@H]1CC(C)(C)C[C@H]2C3=CC[C@@H]4[C@@]5(C)CCC(=O)C(C)(C)[C@@H]5CC[C@@]4(C)[C@]3(C)CC[C@@]12C(=O)O, the TGI ([1]; read-out: TGI) was over 100 µM, the GI50 ([1]; read-out: pGI50 (converted)) was 11.7 µM and the CC50 [1, 31] was over 100 µM. It also gave a TGI ([1]; read-out: pTGI (converted)) of over 100 µM, a GI50 ([2]; read-out: GI50) of 6.52 µM and a CC50 ([2]; read-out: LC50 (the source's name)) of 76.6 µM. The TGI ([2]; read-out: TGI) was 25.2 µM, the GI50 ([2]; read-out: pGI50 (converted)) was 6.46 µM and the CC50 [2, 31] was 75.9 µM. For the same compound, the TGI ([2]; read-out: pTGI (converted)) was 25.1 µM, the growth at 100 µM [3] was -69% and the growth at 100 µM [4] was 7%. The growth at 100 µM [5] was -34%, the growth at 100 µM [6] was 12% and the growth at 100 µM [7] was -50%. The growth at 100 µM [8] was -41%, the growth at 1 µM [9] was 74% and the growth at 1 µM [10] was 86%. It also gave a growth at 1 µM [11] of 82%, a growth at 1 µM [12] of 85% and a growth at 1 µM [13] of 73%. The growth at 1 µM [14] was 87%, the growth at 1 µM [15] was 83% and the growth at 1 µM [16] was 71%. For the same compound, the growth at 1 µM [17] was 88%, the growth at 1 µM [18] was 100% and the growth at 1 µM [19] was 46%. The growth at 1 µM [20] was 85%, the growth at 0.1 µM [21] was 93% and the growth at 0.1 µM [22] was 88%. For the same compound, the growth at 0.1 µM [23] was 97%, the growth at 0.1 µM [24] was 90% and the growth at 0.1 µM [25] was 87%. It also gave a growth at 0.1 µM [26] of 97%, a growth at 0.01 µM [27] of 92% and a growth at 0.01 µM [28] of 105%. It also gave a growth at 0.01 µM [29] of 99% and a growth at 0.01 µM [30] of 86%.

From ChEMBL document CHEMBL2413072, “Synthesis and in vitro anticancer studies of novel C-2 arylidene congeners of lantadenes” (2013)
